Assay results published in ChEMBL document CHEMBL1212738, “Phenotypic and genotypic characterization of Enterobacteriaceae with decreased susceptibility to carbapenems: results from large hospital-based surveillance studies in China” (2010).
In brackets after ≈: the same amount, converted by molar mass.

How the values were obtained:
Klebsiella pneumoniae [1] = assay: Antimicrobial activity against Klebsiella pneumoniae ZJ68T expressing CTX-M-15 by CLSI method; type: functional
Klebsiella pneumoniae [2] = assay: Antimicrobial activity against carbapenem-resistant Klebsiella pneumoniae ZJ69 deficient in SHV-28, ompK35/36 by CLSI method; type: functional
Klebsiella pneumoniae [3] = assay: Antimicrobial activity against Klebsiella pneumoniae PU104T expressing TEM-1, CTX-M-15 by CLSI method; type: functional
Escherichia coli [4] = assay: Antimicrobial activity against carbapenem-resistant Escherichia coli PU101 deficient in TEM-1, CTX-M-14, CMY-2, ompC by CLSI method; type: functional
Klebsiella aerogenes [5] = assay: Antimicrobial activity against carbapenem-resistant Enterobacter aerogenes PU41 deficient in CTX-M-14, DHA-1, qnrS1, ompC DEc, ompF by CLSI method; type: functional
Klebsiella aerogenes [6] = assay: Antimicrobial activity against Enterobacter aerogenes PU41T expressing CTX-M-14, DHA-1, qnrS1 by CLSI method; type: functional
Escherichia coli [7] = assay: Antimicrobial activity against carbapenem-resistant Escherichia coli PU43 deficient in TEM-1, CTX-M-14, aac(6')-Ib, ompC/F by CLSI method; type: functional
Escherichia coli [8] = assay: Antimicrobial activity against carbapenem-resistant Escherichia coli HX74 deficient in TEM-1, CTX-M-14, CTX-M-3, aac(6')-Ibcr, ompC/F by CLSI method; type: functional
Enterobacter cloacae [9] = assay: Antimicrobial activity against carbapenem-resistant Enterobacter cloacae NJ88 deficient in CTX-M-14, ompC/F by CLSI method; type: functional
Enterobacter cloacae [10] = assay: Antimicrobial activity against carbapenem-resistant Enterobacter cloacae NJ89 deficient in CTX-M-14, ompC/F by CLSI method; type: functional
Enterobacter cloacae [11] = assay: Antimicrobial activity against carbapenem-resistant Enterobacter cloacae NJ91 deficient in CTX-M-14, ompC/F by CLSI method; type: functional
Klebsiella pneumoniae [12] = assay: Antimicrobial activity against carbapenem-resistant Klebsiella pneumoniae GZ84 deficient in SHV-11, aac(6')-Ib-cr, ompK35 by CLSI method; type: functional
Klebsiella pneumoniae [13] = assay: Antimicrobial activity against Klebsiella pneumoniae ZJ18T expressing KPC-2, DHA-1 by CLSI method; type: functional
Klebsiella pneumoniae [14] = assay: Antimicrobial activity against carbapenem-resistant Klebsiella pneumoniae ZJ70 deficient in KPC-2, SHV-11, CTX-M-14, ompK35/36 by CLSI method; type: functional
Klebsiella pneumoniae [15] = assay: Antimicrobial activity against carbapenem-resistant Klebsiella pneumoniae ZJ71 deficient in KPC-2, TEM-1, SHV-11, CTX-M-14, ompK35 by CLSI method; type: functional
Klebsiella pneumoniae [16] = assay: Antimicrobial activity against Klebsiella pneumoniae ZJ71T expressing KPC-2 by CLSI method; type: functional
Klebsiella pneumoniae [17] = assay: Antimicrobial activity against Klebsiella pneumoniae ZJ99 expressing KPC-2, CTX-M-3, qnrS1, ompK35 DE by CLSI method; type: functional
Klebsiella pneumoniae [18] = assay: Antimicrobial activity against Klebsiella pneumoniae ZJ99T expressing KPC-2, CTX-M-3, qnrS1 by CLSI method; type: functional
Escherichia coli [19] = assay: Antimicrobial activity against Escherichia coli ZJ86T expressing KPC-2 by CLSI method; type: functional
Escherichia coli [20] = assay: Antimicrobial activity against Escherichia coli ZJ87T expressing KPC-2 by CLSI method; type: functional
Klebsiella pneumoniae [21] = assay: Antimicrobial activity against carbapenem-resistant Klebsiella pneumoniae FZ47 deficient in IMP-8, TEM-1, SHV-11, CTX-M-14, qnrB2, aac(6')-Ib, ompK35/36 by CLSI method; type: functional
Klebsiella pneumoniae [22] = assay: Antimicrobial activity against carbapenem-resistant Klebsiella pneumoniae FZ49 deficient in IMP-8, TEM-1, SHV-11, CTX-M-14, qnrB2, aac(6')-Ib, ompK35/36 by CLSI method; type: functional
Klebsiella pneumoniae [23] = assay: Antimicrobial activity against Klebsiella pneumoniae FZ49T expressing IMP-8, TEM-1, CTX-M-14, qnrB2, aac(6')-Ib by CLSI method; type: functional
Klebsiella pneumoniae [24] = assay: Antimicrobial activity against Klebsiella pneumoniae GZ64T expressing IMP-4 by CLSI method; type: functional
Klebsiella pneumoniae [25] = assay: Antimicrobial activity against Klebsiella pneumoniae WH77 expressing IMP-4, TEM-1, SHV-14, CTX-M-3, qnrS1 by CLSI method; type: functional
Citrobacter freundii [26] = assay: Antimicrobial activity against Citrobacter freundii SZ62 expressing IMP-4, TEM-1, CMY-2, qnrS1, aac(6')-Ib-cr by CLSI method; type: functional
Citrobacter freundii [27] = assay: Antimicrobial activity against Citrobacter freundii SZ63 expressing IMP-4, qnrS1by CLSI method; type: functional
Enterobacter cloacae [28] = assay: Antimicrobial activity against carbapenem-resistant Enterobacter cloacae SZ92 deficient in IMP-4, TEM-1, CTX-M-14, DHA-1, qnrB10/B4-like, aac(6')-Ib, ompC by CLSI method; type: functional
Enterobacter cloacae [29] = assay: Antimicrobial activity against carbapenem-resistant Enterobacter cloacae WH103 deficient in IMP-4, TEM-1, CTX-M-3, qnrS1, ompC by CLSI method; type: functional
Klebsiella pneumoniae [30] = assay: Antimicrobial activity against carbapenem-resistant Klebsiella pneumoniae CY1 deficient in SHV-11, DHA-1, ompK35/36 by CLSI method; type: functional
Klebsiella pneumoniae [31] = assay: Antimicrobial activity against Klebsiella pneumoniae CY1T expressing SHV-11, DHA-1 by CLSI method; type: functional
Klebsiella pneumoniae [32] = assay: Antimicrobial activity against carbapenem-resistant Klebsiella pneumoniae PU3 deficient in DHA-1, aac(6')-Ib-cr, ompK35/36 by CLSI method; type: functional
Klebsiella pneumoniae [33] = assay: Antimicrobial activity against carbapenem-resistant Klebsiella pneumoniae PU8 deficient in SHV-11, DHA-1, aac(6')-Ib-cr, ompK35/36 by CLSI method; type: functional
Klebsiella pneumoniae [34] = assay: Antimicrobial activity against carbapenem-resistant Klebsiella pneumoniae SZ61 deficient in TEM-1, SHV-1a, CMY-2, ompK35/36 by CLSI method; type: functional
Klebsiella pneumoniae [35] = assay: Antimicrobial activity against carbapenem-resistant Klebsiella pneumoniae GZ66 deficient in SHV-11, DHA-1, ompK35/36 by CLSI method; type: functional
Klebsiella pneumoniae [36] = assay: Antimicrobial activity against carbapenem-resistant Klebsiella pneumoniae XJ81 deficient in TEM-1, SHV-12, DHA-1, aac(6')-Ib, ompK35/36 by CLSI method; type: functional
Escherichia coli [37] = assay: Antimicrobial activity against Escherichia coli C600 transconjugant SZ62T expressing IMP-4, qnrS1by CLSI method
Escherichia coli [38] = assay: Antimicrobial activity against Escherichia coli C600 transconjugant XJ81T expressing TEM-1, SHV-12, aac(6')-Ib by CLSI method
Escherichia coli [39] = assay: Antimicrobial activity against carbapenem-resistant Escherichia coli ZJ86 expressing KPC-2, TEM-1 with ompC loss by CLSI method
Escherichia coli [40] = assay: Antimicrobial activity against Escherichia coli C600 transconjugant WH77T expressing IMP-4, TEM-1, CTX-M-3, qnrS1 by CLSI method

C[C@@H](O)[C@H]1C(=O)N2C(C(=O)O)=C(SCCNC=N)C[C@H]12 [IMIPENEM ANHYDROUS]
MIC (Klebsiella pneumoniae [1]): 0.5 mg/L (≈ 1.67 µM) | MIC (Klebsiella pneumoniae [2]): 32 mg/L (≈ 107 µM) | MIC (Klebsiella pneumoniae [3]): 0.25 mg/L (≈ 0.835 µM) | MIC (Escherichia coli [4]): 32 mg/L (≈ 107 µM) | MIC (Klebsiella aerogenes [5]): 32 mg/L (≈ 107 µM) | MIC (Klebsiella aerogenes [6]): 0.5 mg/L (≈ 1.67 µM) | MIC (Escherichia coli [7]): 8 mg/L (≈ 26.7 µM) | MIC (Escherichia coli [8]): 4 mg/L (≈ 13.4 µM) | MIC (Enterobacter cloacae [9]): 16 mg/L (≈ 53.4 µM) | MIC (Enterobacter cloacae [10]): 16 mg/L (≈ 53.4 µM) | MIC (Enterobacter cloacae [11]): 16 mg/L (≈ 53.4 µM) | MIC (Klebsiella pneumoniae [12]): 1 mg/L (≈ 3.34 µM) | MIC (Klebsiella pneumoniae [13]): 2 mg/L (≈ 6.68 µM) | MIC (Klebsiella pneumoniae [14]): > 256 mg/L | MIC (Klebsiella pneumoniae [15]): 16 mg/L (≈ 53.4 µM) | MIC (Klebsiella pneumoniae [16]): 8 mg/L (≈ 26.7 µM) | MIC (Klebsiella pneumoniae [17]): 16 mg/L (≈ 53.4 µM) | MIC (Klebsiella pneumoniae [18]): 16 mg/L (≈ 53.4 µM) | MIC (Escherichia coli [19]): 8 mg/L (≈ 26.7 µM) | MIC (Escherichia coli [20]): 8 mg/L (≈ 26.7 µM) | MIC (Klebsiella pneumoniae [21]): 8 mg/L (≈ 26.7 µM) | MIC (Klebsiella pneumoniae [22]): 8 mg/L (≈ 26.7 µM) | MIC (Klebsiella pneumoniae [23]): 4 mg/L (≈ 13.4 µM) | MIC (Klebsiella pneumoniae [24]): 2 mg/L (≈ 6.68 µM) | MIC (Klebsiella pneumoniae [25]): 2 mg/L (≈ 6.68 µM) | MIC (Citrobacter freundii [26]): 4 mg/L (≈ 13.4 µM) | MIC (Citrobacter freundii [27]): 4 mg/L (≈ 13.4 µM) | MIC (Enterobacter cloacae [28]): 8 mg/L (≈ 26.7 µM) | MIC (Enterobacter cloacae [29]): 8 mg/L (≈ 26.7 µM) | MIC (Klebsiella pneumoniae [30]): 32 mg/L (≈ 107 µM) | MIC (Klebsiella pneumoniae [31]): 0.25 mg/L (≈ 0.835 µM) | MIC (Klebsiella pneumoniae [32]): 32 mg/L (≈ 107 µM) | MIC (Klebsiella pneumoniae [33]): 16 mg/L (≈ 53.4 µM) | MIC (Klebsiella pneumoniae [34]): 16 mg/L (≈ 53.4 µM) | MIC (Klebsiella pneumoniae [35]): 32 mg/L (≈ 107 µM) | MIC (Klebsiella pneumoniae [36]): 8 mg/L (≈ 26.7 µM) | MIC (Escherichia coli [37]): 4 mg/L (≈ 13.4 µM) | MIC (Escherichia coli [38]): 0.25 mg/L (≈ 0.835 µM) | MIC (Escherichia coli [39]): 8 mg/L (≈ 26.7 µM) | MIC (Escherichia coli [40]): 4 mg/L (≈ 13.4 µM)
